Among the data in ChEMBL document CHEMBL1129997 (J Med Chem, 1997) are TE50, IC50 and Ratio values, retold here.

Test [1] concerns T78-1/T79-A3. The test can be described thus: TE50 is termed as Bystander effect evaluated in T78-1 and T79-A3 cell lines. The format is functional, Cricetulus griseus. Further details: unit not given beside the values.
Test [2] concerns T78-1. Briefly: Cytotoxicity in T78-1 (NR-negative) cell lines. The format is functional, cell-based. The settings on record: Cricetulus griseus.
In test [3] the target is T1, Modulator of drug activity A (Escherichia coli O157:H7) (UniProt Q8X6S1).
T1 sequence (whole entry): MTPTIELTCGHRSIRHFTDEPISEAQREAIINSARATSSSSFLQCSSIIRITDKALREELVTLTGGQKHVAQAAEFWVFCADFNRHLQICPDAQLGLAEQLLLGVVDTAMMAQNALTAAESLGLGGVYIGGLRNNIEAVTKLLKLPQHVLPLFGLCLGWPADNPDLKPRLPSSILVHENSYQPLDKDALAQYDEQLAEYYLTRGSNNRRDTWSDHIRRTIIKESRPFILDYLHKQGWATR
The test can be described thus: IC50 ratio for NR-positive and NR-negative cell lines. It is filed as functional.

pIC50: −log10 of the molar value.

Broadly, the pIC50 is −log10 of the IC50, conventionally taken in molar units. Turning to `O=C(NCC(O)CO)c1cc([N+](=O)[O-])cc([N+](=O)[O-])c1N(CCI)CCI` (stereo not drawn), in test [1], the TE50 is 7. For the same compound, in test [2], the negative logarithm of the IC50 (pIC50) is 4.07. In addition, in test [3], the Ratio is 21.5.

The compound `NC(=O)c1cc(N(CCI)CCI)c([N+](=O)[O-])cc1[N+](=O)[O-]` yielded a TE50 in test [1] of 0.3. The compound further had a pIC50 in test [2] of 4.15. Further, the Ratio in test [3] is 494.

Regarding `CN(C)CCNC(=O)c1c([N+](=O)[O-])ccc(N(CCCl)CCCl)c1[N+](=O)[O-]`, the pIC50 in test [2] is 3.14. Moreover, the Ratio in test [3] worked out at 0.8.

Regarding `NC(=O)c1cc(N2CC2)c([N+](=O)[O-])cc1[N+](=O)[O-]` [TRETAZICAR], the TE50 in test [1] is given as 1. The compound also had a pIC50 in test [2] of 3.80.

Compound `NC(=O)c1c([N+](=O)[O-])ccc(N(CCCl)CCCl)c1[N+](=O)[O-]` gave a pIC50 in test [2] of under 3.00.

In test [2], `CS(=O)(=O)CCN(CCCl)c1cc(C(N)=O)c([N+](=O)[O-])cc1[N+](=O)[O-]` gave a pIC50 of under 3.00.

For `NC(=O)c1cc([N+](=O)[O-])cc([N+](=O)[O-])c1N(CCBr)CCBr`, the TE50 in test [1] came out at 0.22. Further, the pIC50 in test [2] was 4.76.

The compound `CS(=O)(=O)c1cc([N+](=O)[O-])c(C(N)=O)cc1N(CCCl)CCCl` gave a pIC50 in test [2] of under 3.00. Moreover, the Ratio in test [3] was over 17.

`NC(=O)c1cc([N+](=O)[O-])cc([N+](=O)[O-])c1N(CCI)CCI`: the TE50 in test [1] worked out at 0.4. In test [2], this compound had a pIC50 of 4.24.

Turning to `NC(=O)c1cc(N(CCCl)CCCl)c([N+](=O)[O-])cc1[N+](=O)[O-]`, the TE50 in test [1] was 3.7. The negative logarithm of the IC50 (pIC50) in test [2] is 3.05. Further, in test [3], the Ratio is 63.

In test [1], `O=C(NCC(O)CO)c1cc(N(CCI)CCI)c([N+](=O)[O-])cc1[N+](=O)[O-]` (stereo not drawn) gave a TE50 of 0.45. This compound gave a pIC50 in test [2] of 3.10.

In turn, `CS(=O)(=O)CCN(CCS(C)(=O)=O)c1cc(C(N)=O)c([N+](=O)[O-])cc1[N+](=O)[O-]` gave a pIC50 in test [2] of under 3.00.

In test [2], `NC(=O)c1cc([N+](=O)[O-])cc([N+](=O)[O-])c1N(CCCl)CCCl` had a pIC50 of under 3.00. For the same compound, the Ratio in test [3] was over 133.

On to `O=C(NCC(O)CO)c1cc(N(CCCl)CCCl)c([N+](=O)[O-])cc1[N+](=O)[O-]` (stereo not drawn), for which, in test [2], the pIC50 was under 2.30. Moreover, the Ratio in test [3] is over 55.

Regarding `O=C(NCC(O)CO)c1cc([N+](=O)[O-])cc([N+](=O)[O-])c1N(CCCl)CCCl` (stereo not drawn), the TE50 in test [1] stood at 12. Moreover, the pIC50 in test [2] is 3.04.

As for `NC(=O)c1cc(N(CCBr)CCBr)c([N+](=O)[O-])cc1[N+](=O)[O-]`, in test [1], the TE50 amounted to 0.1. In test [2], the pIC50 is 3.20. Moreover, the Ratio in test [3] is 2530.
